In EPA's ToxRefDB 2:

Key:
rat [1] = conditions: Sub-acute repeat dose toxicity, sprague dawley, Oral, Gavage/Intubation, dose end: 14 day, group: systemic
rat [2] = conditions: Sub-acute repeat dose toxicity, sprague dawley, Oral, Gavage/Intubation, dose end: 29 day, group: systemic
primate [3] = conditions: Sub-acute repeat dose toxicity; Oral; Gavage/Intubation; dose end: 34 day; group: systemic; systemic / pathology microscopic / intestine small / erosion + systemic / pathology microscopic / intestine small / hemorrhage + systemic / …
primate [4] = conditions: Sub-acute repeat dose toxicity, Oral, Gavage/Intubation, dose end: 23 day, group: systemic
rat [5] = conditions: Carcinogenicity, fischer, Oral, Feed, dose end: 2 year, group: systemic
rat [6] = conditions: Carcinogenicity, fischer, Oral, Gavage/Intubation, dose end: 105 week, group: systemic
rat [7] = conditions: Prenatal developmental toxicity study, sprague dawley, Oral, Gavage/Intubation, dose end: 19 GD
rat [8] = conditions: Multigenerational reproductive toxicity study, sprague dawley, Oral, Gavage/Intubation, dose end: 2 generation
mouse [9] = conditions: Carcinogenicity; b6c3f1; Oral; Gavage/Intubation; dose end: 105 week; group: systemic; systemic / pathology microscopic / nose / dilatation + systemic / pathology microscopic / nose / hyperplasia + systemic / pathology …
mouse [10] = conditions: Subchronic oral toxicity in rodents, b6c3f1, Gavage/Intubation, dose end: 14 week, group: systemic
rat [11] = conditions: Subchronic oral toxicity in rodents, fischer, Gavage/Intubation, dose end: 14 week, group: systemic
[12] = systemic / hematology / platelet / platelet + systemic / in life observation / body weight / body weight gain + systemic / in life …
[13] = systemic / in life observation / body weight / body weight gain
[14] = systemic / clinical chemistry / [other] / [other] + systemic / clinical chemistry / protein / protein + systemic / hematology / erythrocyte…
[15] = systemic / clinical chemistry / alanine aminotransferase (alt/sgpt) / alanine aminotransferase (alt/sgpt) + systemic / clinical chemistry / …
[16] = systemic / in life observation / clinical signs / emesis
[17] = systemic / in life observation / body weight / body weight + systemic / pathology microscopic / urinary bladder / hyperplasia
[18] = systemic / in life observation / body weight / body weight + systemic / pathology microscopic / urinary bladder / hyperplasia + systemic / …
[19] = systemic / pathology microscopic / nose / atrophy + systemic / pathology microscopic / nose / metaplasia
[20] = group: developmental, developmental / developmental malformation / bone / unossified + systemic / in life observation / body weight / fetal weight
[21] = group: maternal, systemic / in life observation / body weight / body weight + systemic / in life observation / body weight / body weight gain + systemic / in…
[22] = group: offspring, developmental / developmental landmark / nipple development / nipple development + systemic / in life observation / body weight / offspring…
[23] = group: offspring, systemic / pathology microscopic / stomach / hyperkeratosis + systemic / pathology microscopic / stomach / hyperplasia
[24] = group: parental, systemic / in life observation / body weight / body weight + systemic / in life observation / body weight / dam weight + systemic / in life …
[25] = group: parental, systemic / organ weight / liver / relative to body weight + systemic / pathology microscopic / stomach / hyperkeratosis + systemic / …
[26] = group: reproductive, reproductive / offspring survival early / live fetuses / live fetuses
[27] = systemic / organ weight / liver / relative to body weight
[28] = systemic / clinical chemistry / cytochrome p450, nos / cytochrome p450, nos
[29] = systemic / organ weight / liver / absolute + systemic / organ weight / liver / relative to body weight + systemic / pathology microscopic / …

NC(=O)n1c(O)c(C(=O)c2ccc(Cl)s2)c2cc(Cl)ccc21 was tested, and the LOAEL (rat [1]; [12]) was > 100 mg/kg/day, the NOAEL (rat [1]; [12]) was ≥ 100 mg/kg/day and the LEL (rat [1]; [13]) was 10 mg/kg/day. For the same compound, the NEL (rat [1]; [13]) was < 10 mg/kg/day, the LOAEL (rat [2]; [14]) was > 30 mg/kg/day and the NEL (rat [2]; [14]) was 3 mg/kg/day. For the same compound, the NOAEL (rat [2]; [14]) was ≥ 30 mg/kg/day, the LEL (rat [2]; systemic / clinical chemistry / protein / protein + systemic / hematology / erythrocyte (rbc) count differential / erythrocyte (rbc) + …) was 10 mg/kg/day and the LEL (primate [3]) was 3 mg/kg/day. For the same compound, the LOAEL (primate [3]) was > 10 mg/kg/day, the NEL (primate [3]) was 1 mg/kg/day and the NOAEL (primate [3]) was ≥ 10 mg/kg/day. The LOAEL (primate [4]; [15]) was > 30 mg/kg/day, the NOAEL (primate [4]; [15]) was ≥ 30 mg/kg/day and the LEL (primate [4]; [16]) was 1 mg/kg/day. For the same compound, the NEL (primate [4]; [16]) was < 1 mg/kg/day.
In the case of Cc1ccccc1N.Cl [2-Methylaniline hydrochloride], the LOAEL (rat [5]; [17]) was 300 mg/kg/day, the NOAEL (rat [5]; [17]) was < 300 mg/kg/day and the LEL (rat [5]; [18]) was 300 mg/kg/day. For the same compound, the NEL (rat [5]; [18]) was < 300 mg/kg/day.
For C/C=C/c1ccc(O)c(OC)c1 [Isoeugenol], the LEL (rat [6]; [19]) was 75 mg/kg/day, the LOAEL (rat [6]; [19]) was 150 mg/kg/day and the NEL (rat [6]; [19]) was < 75 mg/kg/day. It also gave an NOAEL (rat [6]; systemic / pathology microscopic / nose / atrophy + systemic / pathology microscopic / nose / metaplasia + systemic / pathology microscopic…) of 75 mg/kg/day, an LEL (rat [7]; [20]) of 1000 mg/kg/day and an LOAEL (rat [7]; [20]) of 1000 mg/kg/day. It also gave an NEL (rat [7]; [20]) of 500 mg/kg/day, an NOAEL (rat [7]; [20]) of 500 mg/kg/day and an LEL (rat [7]; [21]) of 250 mg/kg/day. The LOAEL (rat [7]; [21]) was 250 mg/kg/day, the NEL (rat [7]; [21]) was < 250 mg/kg/day and the NOAEL (rat [7]; [21]) was < 250 mg/kg/day. For the same compound, the LOAEL (rat [8]; [22]) was > 700 mg/kg/day, the NOAEL (rat [8]; [22]) was ≥ 700 mg/kg/day and the LEL (rat [8]; [23]) was 70 mg/kg/day. The NEL (rat [8]; [23]) was < 70 mg/kg/day, the LOAEL (rat [8]; [24]) was > 700 mg/kg/day and the NOAEL (rat [8]; [24]) was ≥ 700 mg/kg/day. The LEL (rat [8]; [25]) was 70 mg/kg/day, the NEL (rat [8]; [25]) was < 70 mg/kg/day and the LEL (rat [8]; [26]) was 700 mg/kg/day. For the same compound, the LOAEL (rat [8]; [26]) was > 700 mg/kg/day, the NEL (rat [8]; [26]) was 230 mg/kg/day and the NOAEL (rat [8]; [26]) was ≥ 700 mg/kg/day. The LEL (mouse [9]) was 75 mg/kg/day, the LOAEL (mouse [9]) was 75 mg/kg/day and the NEL (mouse [9]) was < 75 mg/kg/day. For the same compound, the NOAEL (mouse [9]) was < 75 mg/kg/day, the LEL (mouse [10]; [27]) was 37.5 mg/kg/day and the NEL (mouse [10]; [27]) was < 37.5 mg/kg/day. For the same compound, the LOAEL (mouse [10]; systemic / pathology microscopic / nose / atrophy + systemic / in life observation / body weight / body weight + systemic / in life …) was 600 mg/kg/day, the NOAEL (mouse [10]; systemic / pathology microscopic / nose / atrophy + systemic / organ weight / lung / absolute) was 300 mg/kg/day and the LEL (rat [11]; [28]) was 75 mg/kg/day. The NEL (rat [11]; [28]) was 37.5 mg/kg/day, the LOAEL (rat [11]; [29]) was 600 mg/kg/day and the NOAEL (rat [11]; [29]) was 300 mg/kg/day.
